Consider 14 compounds from patent publication US11292803B2, “Bioreducible N-oxide-based probes for imaging of hypoxia” (THE BOARD OF TRUSTEES OF THE UNIVERSITY OF ILLINOIS, priority 2018, dated 2022).

For data set [1], the system named is CYP450-rich rat liver microsomes. Here is the method: FIG. 4. […] (a) Representative PA image (770 nm) of reaction mixtures incubated under normoxic or hypoxic conditions for 2 h, then quenched with an equal volume of acetonitrile. Dashed lines indicate positioning of FEP tubes. (b) Change in PA signal (770 nm) produced after 2 h incubation of HyP-1 (10 μM) with rat liver microsomes (RLM) (200 μg/mL) and NADPH (50 μM) in normoxic and hypoxic conditions (n=3). (c) Ratiometric fluorescence turn-on after 2 h incubation of HyP-1 (2 μM) with RLM ([…]) and NADPH (50 μM) in normoxic or hypoxic conditions (n=3). (d) Normalized fluorescent turn-on after 1 h hypoxic incubation of HyP-1 (2 μM) with RLM (100 μg/mL) and NADPH (50 μM) under various conditions. Statistical significance represents a comparison to the hypoxic control (n=6). Results with error bars are represented as mean±SD. **p<0.01, ***p<0.001, ****p<0.0001.
The responsiveness of HyP-1 to hypoxia was first evaluated in vitro via fluorescence by incubating HyP-1 with CYP450-rich rat liver microsomes under atmospheric (normoxic) and oxygen-deprived (hypoxic) conditions. […] The PA response of HyP-1 under identical conditions was evaluated by quenching the reaction mixtures with an equal volume of acetonitrile and transferring the solutions into fluorinated ethylene propylene (FEP) tubes, which were inserted into the centre of a 2 cm thick agarose-based tissue-mimicking phantom.
For hypoxic assays only, cuvettes were sealed with septa, then evacuated and filled with N2 (×3) prior to use. Potassium phosphate buffer (0.1 M, pH 7.4) and NADPH (0.5 mM) were degassed with N2 for 30 minutes. For all assays, phosphate buffer (889 μL) rat liver microsomes (200 μg/mL) and HyP-1 (1 μL, 2 mM in DMSO) were added to the cuvette and pre-incubated at 37° C. for 5 minutes. NADPH (100 μL) was added and incubation continued with fluorescence spectra acquisition occurring at the indicated time points. Spectra were acquired according to the following parameters: λex=672, emission range=685-800 nm and λex=750, emission range=760-900 nm. For BIPY and DPI experiments, the compounds were added from stock solutions (1 M BIPY in DMSO and 50 mM DPI in deionized water) following the 5 minute preincubation, and the buffer volume was adjusted such that the total volume in the cuvette was equal to 1 mL. Deactivated microsomes were prepared by heating in a 45° C. water bath for 30 minutes.

For a further data set, the system named is 4T1 cells. The data set can be described thus: Ratiometric fluorescence of cells, IVIS Spectrum. The class given is cell-based, murine. The note with it: hypoxic 4T1 cells. Here is the method: Ratiometric fluorescence imaging was also performed on 4T1 cells cultured in 6-well plates using an IVIS Spectrum imaging system. Cells were stained with a 5 μM solution of HyP-1 and incubated in either normoxic or hypoxic conditions for 4 hours (FIG. 5c). […] To further verify the in vitro results and determine the cellular factors responsible for HyP-1 reduction, cells were also stained with HyP-1 solutions containing either BIPY or DPI at multiple concentrations and incubated under hypoxic conditions.
Authenticated 4T1 cells were purchased from ATCC. Cells were grown in RPMI 1640 medium supplemented with 10% fetal bovine serum. Cells were cultured at 37° C. in 5% CO2 and 20% 02 for normoxic conditions. Hypoxic cell culture was performed by incubating cells in a sealed container with a Mitsubishi AnaeroPack™ anaerobic gas generator. Hypoxic conditions were verified with the use of a Mitsubishi RT Anaero-Indicator.
For cellular imaging using the IVIS Spectrum imaging system, cells were plated in a 6-well plate at an initial density of 1.7×10^4 cells/mL and allowed to grow until 60-80% confluent (approximately 3 days). Media was removed and cells were washed with PBS. A […] solution of HyP-1 in serum-free medium was added, and cells were incubated under normoxic or hypoxic conditions for 4 hours. For BIPY and DPI experiments, the staining solution was supplemented with the compound at the appropriate concentration, and ratiometric turn-on was reported relative to a vehicle control. Images were obtained using excitation and emission filter sets of 675/720 nm and 745/800 nm. Regions of interest (ROIs) were drawn around cell-containing wells, and ratiometric signal was calculated by determining the ratio of radiant efficiency corresponding to 800 nm and 720 nm emissions.

Data set [2] can be described thus: Photophysical characterization (absorbance, emission, extinction coefficient, quantum yield). The class given is physicochemical.
A further data set deals with ischemic hindlimb tissue. The data set is described as follows: In vivo fluorescence imaging of hindlimb ischemia model. Details: species or system BALB/c mice. As to conditions: 5 mM co-administered, ischemic hindlimb. On the procedure: To visualize the response of HyP-1 in a model of rapidly developing hypoxia, a murine hindlimb ischemia model of peripheral artery disease was employed. Ischemia was induced in the right hindlimb of BALB/c mice via ligation of the femoral artery. […] After a 1-hour recovery period, HyP-1 (50 μL, 50 μM) was administered via intramuscular injection into both hindlimbs of the mouse. To visualize the time-dependent response of HyP-1 in the ischemic and non-ischemic tissue, ratiometric fluorescence imaging was performed over the course of 1 hour immediately following injection. […]
All in vivo imaging experiments were performed with the approval of the Institutional Animal Care and Use Committee of the University of Illinois at Urbana-Champaign, following the principles outlined by the American Physiological Society on research animal use. […] Animals that underwent unsuccessful surgery as determined by laser Doppler perfusion imaging were excluded from analysis.
Images were obtained using epi-fluorescence with excitation filters of 675 and 745 and corresponding emission filters of 720 and 800, respectively. […] ROIs of equal area were drawn around signals, and the total radiant efficiency in each ROI was determined. Ratiometric signal was calculated by determining the ratio of radiant efficiency corresponding to 800 nm and 720 nm emissions.

Take `[Cl-].c1ccc([I+]c2ccccc2)cc1` [DPI, diphenyliodonium chloride, reference compound]: the “effect on HyP-1 turn-on response / reduction by rat liver microsomes” value in data set [1] is given as “inhibition of HyP-1 reduction was achieved”. The “inhibition of HyP-1 ratiometric fluorescence in cells” value in the data set on 4T1 cells (multiple concentrations (100, 500 μM)) was “significant dose-dependent inhibition”.
In the case of `CCN(CC)c1ccc(C2=[N+]3C(=Nc4c(-c5ccccc5)cc(-c5ccc(N(CC)CC)cc5)n4[B-]3(F)F)C(c3ccccc3)=C2)cc1` [red-rHyP-1, 4,4′-(5,5-difluoro-1,9-diphenyl-5H-4λ^4,5λ^4-dipyrrolo[1,2-c:2′,1′-f][1,3,5,2]triazaborinine-3,7-diyl)bis(N,N-diethylaniline)], in data set [2] (Table 2), the Φ is 0.013, the ε was 9.9 × 10^4 M^−1 · cm^1 and the λabs was 818 nm.
As for `CCCN(CCC)c1ccc(C2=[N+]3C(=Nc4c(-c5ccccc5)cc(-c5ccc(N(CCC)CCC)cc5)n4[B-]3(F)F)C(c3ccccc3)=C2)cc1` [red-rHyP-3], in data set [2] (Table 2), the Φ is on record as 0.010, the ε is 9.3 × 10^4 M^−1 · cm^1 and the λabs is recorded as 826 nm.
Turning to `CCN(CC)c1ccc(C2=[N+]3C(=Nc4c(-c5ccccc5)cc(-c5ccc([N+]([O-])(CC)CC)cc5)n4[B-]3(F)F)C(c3ccccc3)=C2)cc1` [rHyP-1, 4-(7-(4-(diethylamino)phenyl)-5,5-difluoro-1,9-diphenyl-5H-5λ^4,6λ^4-dipyrrolo[1,2-c:2′,1′-f][1,3,5,2]triazaborinin-3-yl)-N,N-diethylaniline oxide], in data set [2] (Table 2), the Φ amounted to 0.013, the ε was 5.8 × 10^4 M^−1 · cm^1 and the λabs is 749 nm.
As for `c1ccc(-c2ccccn2)nc1` [BIPY, 2,2′-bipyridine, reference compound], the “effect on HyP-1 turn-on response / reduction by rat liver microsomes” value in data set [1] is “no significant inhibition”. Moreover, the “ratiometric fluorescence enhancement with co-administration versus HyP-1 alone” value in the data set on ischemic hindlimb tissue is given as “statistically indistinguishable”. Moreover, the “effect on cellular response to HyP-1” value in the data set with 4T1 cells (1 mM) is listed as “no effect”. Besides, in the data set on 4T1 cells (5 mM), the “effect on ratiometric fluorescence of HyP-1 in cells” value is given as “only slight reduction”.
For `F[B-]1(F)n2c(-c3ccc(N4CCCCC4)cc3)cc(-c3ccccc3)c2N=C2C(c3ccccc3)=CC(c3ccc(N4CCCCC4)cc3)=[N+]21` [red-rHyP-4], in data set [2] (Table 2), the Φ amounted to 0.017, the ε is given as 7.6 × 10^4 M^−1 · cm^1 and the λabs was 787 nm.
For the compound `CN(C)c1ccc(C2=[N+]3C(=Nc4c(-c5ccccc5)cc(-c5ccc(N(C)C)cc5)n4[B-]3(F)F)C(c3ccccc3)=C2)cc1` [red-rHyP-2], in data set [2] (Table 2), the Φ worked out at 0.023, the ε is 8.2 × 10^4 M^−1 · cm^1 and the λabs amounted to 798 nm.
`CCN(CC)c1ccc(-c2cc(-c3ccccc3)c3n2[B-](F)(F)[N+]2=C(c4ccccc4)C=C(c4ccccc4)C2=N3)cc1` [red-HyP-650, 4-(5,5-difluoro-1,7,9-triphenyl-5H-54,64-dipyrrolo[1,2-c:2′,1′-f][1,3,5,2]triazaborinin-3-yl)-N,N-diethylaniline]: in data set [2] (in CHCl3 (Table 3)), the “Φ (fluorescence quantum yield)” value is 0.069, the ε is recorded as 8.1 × 10^4 M^−1 · cm^1 and the λabs is 740 nm.
Taken in the same sequence, the figures for `CC[N+]([O-])(CC)c1ccc(-c2cc(-c3ccccc3)c3n2[B-](F)(F)[N+]2=C(c4ccccc4)C=C(c4ccccc4)C2=N3)cc1` [HyP-650, 4-(5,5-difluoro-1,7,9-triphenyl-5H-54,64-dipyrrolo[1,2-c:2′,1′-f][1,3,5,2]triazaborinin-3-yl)-N,N-diethylaniline oxide] were 0.027, 4.0 × 10^4 M^−1 · cm^1 and 650 nm.
On to `[O-][N+]1(c2ccc(-c3cc(-c4ccccc4)c4n3[B-](F)(F)[N+]3=C(c5ccc(N6CCCCC6)cc5)C=C(c5ccccc5)C3=N4)cc2)CCCCC1` [rHyP-4], for which, in data set [2] (Table 2), the Φ was found to be 0.011, the ε is given as 9.1 × 10^4 M^−1 · cm^1 and the λabs was found to be 748 nm.
On to `[O-][N+]1(c2ccc(-c3cc(-c4ccccc4)c4n3[B-](F)(F)[N+]3=C(c5ccc(N6CCOCC6)cc5)C=C(c5ccccc5)C3=N4)cc2)CCOCC1` [rHyP-5], for which, in data set [2] (Table 2), the Φ came to 0.049, the ε is 9.2 × 10^4 M^−1 · cm^1 and the λabs was determined as 718 nm.
`CCCN(CCC)c1ccc(C2=[N+]3C(=Nc4c(-c5ccccc5)cc(-c5ccc([N+]([O-])(CCC)CCC)cc5)n4[B-]3(F)F)C(c3ccccc3)=C2)cc1` [rHyP-3]: in data set [2] (Table 2), the Φ is 0.013, the ε was 8.0 × 10^4 M^−1 · cm^1 and the λabs came out at 747 nm.
Consider `CN(C)c1ccc(C2=[N+]3C(=Nc4c(-c5ccccc5)cc(-c5ccc([N+](C)(C)[O-])cc5)n4[B-]3(F)F)C(c3ccccc3)=C2)cc1` [rHyP-2], for which, in data set [2] (Table 2), the Φ stood at 0.021, the ε is listed as 4.6 × 10^4 M^−1 · cm^1 and the λabs is reported as 738 nm.
For the compound `F[B-]1(F)n2c(-c3ccc(N4CCOCC4)cc3)cc(-c3ccccc3)c2N=C2C(c3ccccc3)=CC(c3ccc(N4CCOCC4)cc3)=[N+]21` [red-rHyP-5], in data set [2] (Table 2), the Φ came to 0.085, the ε is 7.6 × 10^4 M^−1 · cm^1 and the λabs was found to be 758 nm.
